Results: PubChem BioAssay (NCI)
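Method: 48-hour compound exposure of cells in 96-well plates, five concentrations, linear interpolation of endpoints. TGI: concentration producing complete growth inhibition.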

Experiments:
Test in all cases: DTP human tumour cell line panel, 48 h
[1] = tested on: 786-0 renal
[2] = tested on: A498 renal
[3] = tested on: A549 NSCLC
[4] = tested on: ACHN renal
[5] = tested on: BT-549 breast
[6] = tested on: CAKI-1 renal
[7] = tested on: CCRF-CEM leukemia
[8] = tested on: COLO 205 colon
[9] = tested on: DU-145 prostate
[10] = tested on: EKVX NSCLC
[11] = tested on: HCC-2998 colon
[12] = tested on: HCT-116 colon
[13] = tested on: HCT-15 colon
[14] = tested on: HL-60(TB) leukemia
[15] = tested on: HOP-62 NSCLC
[16] = tested on: HOP-92 NSCLC
[17] = tested on: HS 578T breast
[18] = tested on: HT29 colon
[19] = tested on: IGROV1 ovarian
[20] = tested on: K-562 leukemia
[21] = tested on: KM12 colon
[22] = tested on: LOX IMVI melanoma
[23] = tested on: M14 melanoma
[24] = tested on: MALME-3M melanoma
[25] = tested on: MCF7 breast
[26] = tested on: MDA-MB-231 breast
[27] = tested on: MDA-MB-435
[28] = tested on: MDA-N
[29] = tested on: MOLT-4 leukemia
[30] = tested on: NCI-H226 lung
[31] = tested on: NCI-H23 lung
[32] = tested on: NCI-H460 lung
[33] = tested on: NCI-H522 lung
[34] = tested on: NCI/ADR-RES ovarian
[35] = tested on: OVCAR-3 ovarian
[36] = tested on: OVCAR-4 ovarian
[37] = tested on: OVCAR-5 ovarian
[38] = tested on: OVCAR-8 ovarian
[39] = tested on: PC-3 prostate
[40] = tested on: RPMI-8226 leukemia
[41] = tested on: RXF 393 renal
[42] = tested on: SF-268 CNS
[43] = tested on: SF-295 CNS
[44] = tested on: SF-539 CNS
[45] = tested on: SK-MEL-2 melanoma
[46] = tested on: SK-MEL-28 melanoma
[47] = tested on: SK-MEL-5 melanoma
[48] = tested on: SN12C renal
[49] = tested on: SNB-19 CNS
[50] = tested on: SNB-75 CNS
[51] = tested on: SR leukemia
[52] = tested on: SW-620 colon
[53] = tested on: T-47D breast
[54] = tested on: U251 CNS
[55] = tested on: UACC-257 melanoma
[56] = tested on: UACC-62 melanoma
[57] = tested on: UO-31 renal
[58] = tested on: SK-OV-3 ovarian
[59] = tested on: TK-10 renal

SMILES: CCOc1ccc2c(C)cc(=O)oc2c1
- TGI [1]: > 100 µM
- TGI [2]: > 100 µM
- TGI [3]: > 100 µM
- TGI [4]: > 100 µM
- TGI [5]: > 100 µM
- TGI [6]: > 100 µM
- TGI [7]: > 100 µM
- TGI [8]: > 100 µM
- TGI [9]: > 100 µM
- TGI [10]: > 100 µM
- TGI [11]: > 100 µM
- TGI [12]: > 100 µM
- TGI [13]: > 100 µM
- TGI [14]: > 100 µM
- TGI [15]: > 100 µM
- TGI [16]: > 100 µM
- TGI [17]: > 100 µM
- TGI [18]: > 100 µM
- TGI [19]: > 100 µM
- TGI [20]: > 100 µM
- TGI [21]: > 100 µM
- TGI [22]: > 100 µM
- TGI [23]: > 100 µM
- TGI [24]: > 100 µM
- TGI [25]: > 100 µM
- TGI [26]: > 100 µM
- TGI [27]: > 100 µM
- TGI [28]: > 100 µM
- TGI [29]: > 100 µM
- TGI [30]: > 100 µM
- TGI [31]: > 100 µM
- TGI [32]: > 100 µM
- TGI [33]: > 100 µM
- TGI [34]: > 100 µM
- TGI [35]: > 100 µM
- TGI [36]: > 100 µM
- TGI [37]: > 100 µM
- TGI [38]: > 100 µM
- TGI [39]: > 100 µM
- TGI [40]: > 100 µM
- TGI [41]: > 100 µM
- TGI [42]: > 100 µM
- TGI [43]: > 100 µM
- TGI [44]: > 100 µM
- TGI [45]: > 100 µM
- TGI [46]: > 100 µM
- TGI [47]: > 100 µM
- TGI [48]: > 100 µM
- TGI [49]: > 100 µM
- TGI [50]: > 100 µM
- TGI [51]: > 100 µM
- TGI [52]: > 100 µM
- TGI [53]: > 100 µM
- TGI [54]: > 100 µM
- TGI [55]: > 100 µM
- TGI [56]: > 100 µM
- TGI [57]: > 100 µM

SMILES: Cc1cc(S(=O)(=O)NC2=NC(c3ccccc3)c3cc(Cl)ccc3N2)c(S)cc1Cl (stereo not given)
- TGI [1]: > 100 µM
- TGI [2]: > 100 µM
- TGI [3]: > 100 µM
- TGI [4]: > 100 µM
- TGI [5]: > 100 µM
- TGI [6]: > 100 µM
- TGI [7]: > 100 µM
- TGI [8]: > 100 µM
- TGI [9]: > 100 µM
- TGI [10]: > 100 µM
- TGI [11]: > 100 µM
- TGI [12]: > 100 µM
- TGI [13]: > 100 µM
- TGI [14]: > 100 µM
- TGI [15]: > 100 µM
- TGI [16]: > 100 µM
- TGI [17]: > 100 µM
- TGI [18]: > 100 µM
- TGI [19]: > 100 µM
- TGI [20]: > 100 µM
- TGI [21]: > 100 µM
- TGI [22]: > 100 µM
- TGI [23]: > 100 µM
- TGI [24]: > 100 µM
- TGI [25]: > 100 µM
- TGI [26]: > 100 µM
- TGI [27]: > 100 µM
- TGI [28]: > 100 µM
- TGI [29]: > 100 µM
- TGI [30]: > 100 µM
- TGI [31]: > 100 µM
- TGI [32]: > 100 µM
- TGI [33]: > 100 µM
- TGI [34]: > 100 µM
- TGI [35]: > 100 µM
- TGI [36]: > 100 µM
- TGI [37]: > 100 µM
- TGI [38]: > 100 µM
- TGI [39]: > 100 µM
- TGI [40]: > 100 µM
- TGI [41]: > 100 µM
- TGI [42]: > 100 µM
- TGI [43]: > 100 µM
- TGI [44]: > 100 µM
- TGI [46]: > 100 µM
- TGI [47]: > 100 µM
- TGI [58]: > 100 µM
- TGI [48]: > 100 µM
- TGI [49]: > 100 µM
- TGI [50]: > 100 µM
- TGI [51]: > 100 µM
- TGI [52]: > 100 µM
- TGI [53]: > 100 µM
- TGI [59]: > 100 µM
- TGI [54]: > 100 µM
- TGI [55]: > 100 µM
- TGI [56]: > 100 µM
- TGI [57]: 83.7 µM
